From US4812442A, “Tripeptide renin inhibitors” (priority 1987, dated 1989)
Structures can show the parent of a compound that is named as a salt. Where two headings read alike, the source gives them in different places. Square brackets hold non-standard residues; d marks the D form. Peptide text beside a SMILES is read from it. * marks the point of attachment. Sta = CC(C)C[C@H](N)[C@@H](O)CC(=O)O; Isovaleryl = CC(C)CC(=O)*

Experiments:
renin = target: T1, renin (Homo sapiens, UniProt P00797); test: Renin inhibition IC50 (methods of J. Med. Chem., 1985, 28, 1789-1790); assay type: biochemical
T1 sequence (P00797 67-406): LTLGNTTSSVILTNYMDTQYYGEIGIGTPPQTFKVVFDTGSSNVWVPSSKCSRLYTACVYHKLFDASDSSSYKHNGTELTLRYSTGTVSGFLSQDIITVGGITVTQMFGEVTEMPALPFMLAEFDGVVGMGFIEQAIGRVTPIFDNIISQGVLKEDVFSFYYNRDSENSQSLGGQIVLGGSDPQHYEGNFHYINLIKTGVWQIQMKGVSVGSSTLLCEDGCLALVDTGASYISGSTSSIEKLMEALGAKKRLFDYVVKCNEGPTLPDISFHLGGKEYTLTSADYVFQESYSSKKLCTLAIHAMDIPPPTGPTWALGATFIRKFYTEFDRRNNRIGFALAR
Source text: The following examples are intended to be representative and not limiting. IC50 results were obtained according to the methods described in J. Med. Chem., 1985, 28, 1789-1790.

nephrectomized rats = conditions: after the injection of hog renin into nephrectomized rats; cited from earlier work
[1] = renin inhibition, read-out: IC50

CC(C)(C)OC(=O)N[C@@H](Cc1ccccc1)C(=O)N[C@@H](Cc1c[nH]cn1)C(=O)N[C@@H](CC1CCCCC1)[C@@H](O)CC(=O)NC1C[N+]2(CCCCO)CCC1CC2 (stereo partly drawn) [Example 3, N^α -t-butoxycarbonyl-L-phenylalanyl-L-histidyl(3S,4S)-4-amino-5-cyclohexyl-3-hydroxypentanoyl-1-(4-hydroxybutyl)-quinuclidinium-3-yl amide acetate]
IC50 (renin): 33 nM

CC[C@H](C)[C@@H](C[N+](C)(C)CCO)NC(=O)C[C@H](O)[C@H](CC1CCCCC1)NC(=O)[C@H](Cc1c[nH]cn1)NC(=O)[C@H](Cc1ccccc1)NC(=O)OC(C)(C)C [Example 19, acetate salt]
IC50 (renin; [1]): 10 nM

CC[C@H](C)[C@@H](CN(C)C)NC(=O)C[C@H](O)[C@H](CC1CCCCC1)NC(=O)[C@H](Cc1c[nH]cn1)NC(=O)[C@H](Cc1ccccc1)NC(=O)OC(C)(C)C [Example 12]
IC50 (renin; [1]): 5 nM

CC(C)CC(=O)N[C@H](C(=O)N[C@H](C(=O)N[C@@H](CC(C)C)[C@@H](O)CC(=O)N[C@@H](C)C(=O)N[C@@H](CC(C)C)[C@@H](O)CC(=O)O)C(C)C)C(C)C [pepstatin] (Isovaleryl-VV[Sta]A[Sta]-OH)
effect on blood pressure in vivo (nephrectomized rats): reduces blood pressure

CC(C)(C)OC(=O)N[C@@H](Cc1ccccc1)C(=O)N[C@@H](Cc1c[nH]cn1)C(=O)N[C@@H](CC1CCCCC1)[C@@H](O)CC(=O)N1CCS(=O)(=O)CC1 [Example 7, Boc-Phe-His-ACHPA-4-thiamorpholine-1,1-dioxide]
IC50 (renin; [1]): 55 nM

CC(C)C[C@H](NC(=O)[C@H](Cc1ccccc1)NC(=O)[C@H](Cc1ccccc1)NC(=O)OC(C)(C)C)[C@@H](O)CC(=O)N1CCN(c2cccc[n+]2[O-])CC1 [Example 17]
IC50 (renin; [1]): 2000 nM

CC[C@H](C)[C@@H](CN)NC(=O)C[C@H](O)[C@H](CC1CCCCC1)NC(=O)[C@H](Cc1c[nH]cn1)NC(=O)[C@H](Cc1ccccc1)NC(=O)OC(C)(C)C [Example 11]
IC50 (renin; [1]): 33 nM

CC(C)(C)OC(=O)N[C@@H](Cc1ccccc1)C(=O)N[C@@H](Cc1c[nH]cn1)C(=O)N[C@@H](CC1CCCCC1)[C@@H](O)CC(=O)N1CC[S+]([O-])CC1 [Example 6, Boc-Phe-His-ACHPA-4-thiamorpholine-1-oxide]
IC50 (renin; [1]): 67 nM

CC(C)(C)OC(=O)N[C@@H](Cc1ccccc1)C(=O)N[C@@H](Cc1c[nH]cn1)C(=O)N[C@@H](CC1CCCCC1)[C@@H](O)CC(=O)NC1C[N+]2(C)CCC1CC2 (stereo partly drawn) [Example 2, N^α -t-butoxycarbonyl-L-phenylalanyl-L-histidyl-(3S,4S)-4-amino-5-cyclohexyl-3-hydroxy-pentanoyl-1-methylquinuclidium-3-yl amide acetate]
IC50 (renin): 38 nM

CC[C@H](C)NC(=O)C[C@H](O)[C@H](CC1CCCCC1)NC(=O)[C@H](Cc1c[nH]cn1)NC(=O)[C@H](Cc1ccccc1)NC(=O)OC(C)(C)C [Example 9, N^α -t-butoxycarbonyl-L-phenylalanyl-L-histidyl(3S,4S)-4-amino-5-cyclohexyl-3-hydroxypentanoyl-2S-(+)-butyl amide]
IC50 (renin; [1]): 32 nM

CC[C@H](C)[C@@H](C[N+](C)(C)C)NC(=O)C[C@H](O)[C@H](CC1CCCCC1)NC(=O)[C@H](Cc1c[nH]cn1)NC(=O)[C@H](Cc1ccccc1)NC(=O)OC(C)(C)C [Example 18, di-acetate salt]
IC50 (renin; [1]): 15 nM

CC(C)(C)OC(=O)N[C@@H](Cc1ccccc1)C(=O)N[C@@H](Cc1c[nH]cn1)C(=O)N[C@@H](CC1CCCCC1)[C@@H](O)CC(=O)NC1C[N+]2([O-])CCC1CC2 (stereo partly drawn) [Example 4, N^α -t-butoxycarbonyl-L-phenylalanyl-L-histidyl-(3S,4S)-4-amino-5-cyclohexyl-3-hydroxypentanoyl-quinuclidinium-3-yl-1-oxide amide]
IC50 (renin; [1]): 20 nM

CC(C)(C)OC(=O)N[C@@H](Cc1ccccc1)C(=O)N[C@@H](Cc1c[nH]cn1)C(=O)N[C@@H](CC1CCCCC1)[C@@H](O)CC(=O)NC1CN2CCC1CC2 (stereo partly drawn) [Example 1, N^α -t-butoxycarbonyl-L-phenylalanyl-L-histidyl(3S,4S)-4-amino-5-cyclohexyl-3-hydroxypentanoyl-3-quinuclidinyl amide]
IC50 (renin; [1]): 33 nM

CC(C)(C)OC(=O)N[C@@H](Cc1ccccc1)C(=O)N[C@@H](Cc1c[nH]cn1)C(=O)N[C@@H](CC1CCCCC1)[C@@H](O)CC(=O)N1CCSCC1 [Example 5, Boc-Phe-His-ACHPA-4-thiamorpholine]
IC50 (renin; [1]): 19 nM
